US20080177115A1, “Isotopically labeled alpha-keto acids and esters” (Spectra Gases, Inc., priority 2006, published 2008)

Tests used:
Type in all cases: physicochemical
[1] = Concentration studies: stability of pyruvic acid solutions in water at higher concentrations
Method: Each of these commercial solutions were subjected to light for 6-weeks at temperatures ranging from about 22° C. to about 26° C. At each of the concentrations listed below, it was discovered that the pyruvic acid solutions were stable.

[2] = Shelf storage stability of [1-^13C]pyruvic acid in water, compared by ^1H and ^13C NMR spectra; details: 0.025M in water; for Shelf stability (NMR spectra unchanged): all conditions of Table 1
Method: Samples of isotopically labeled [1-^13C]pyruvic acid, having Formula VI and synthesized as discussed immediately below, were subjected to various conditions as depicted in Table 1, in order to establish the compound's shelf storage stability.
The resulting [1-^13C]pyruvic acid was tested as follows in Table 1:
^1H and ^13C NMR spectra of the distilled [1-^13C]pyruvic acid in water (0.025M) were acquired at the onset of the study and prior to exposing the samples to the various conditions specified in Table 1. ^1H and ^13C NMR spectra were again acquired for each of the samples after being exposed to the aforementioned conditions on a weekly basis for 12-weeks. The spectra acquired after exposure were compared visually and appeared to remain unchanged as compared with the spectra acquired prior to exposure, i.e. the spectra were as expected for [1-^13C]pyruvic acid in water. As such, it was concluded that each of the samples were shelf stable. Similarly, ^1H and ^13C NMR spectra acquired after 17-weeks of exposure remained unchanged as compared with the spectra acquired prior to exposure.

[3] = Titration of aqueous sample with sodium hydroxide, composition by HPLC (dimer formation); details: pH of about 6.2 after titration with sodium hydroxide
Text: The molarity of sample 4 was confirmed to be 0.025M by titrating the aqueous sample with sodium hydroxide. […] It was also discovered that at pHs greater than 5.8, such as at a pH of about 6.2, some of the pyruvic acid was present in the form of a dimerized sodium salt. […] As such, it was discovered that to minimize dimmer formation, it may be necessary to control the pH of [1-^13C]pyruvate solutions, and in particular, any aqueous solution should be maintained at a pH of about 6.5 or less, more preferably 6.0 or less, and even more preferably 5.8 or less.

[4] = Sample 3: Room temperature (about 22° C. to about 26° C.), Dark
[5] = Sample 4: Room temperature (about 22° C. to about 26° C.), Light

Row | Stability of solutions in water ([1]; each of the concentrations of Table 2, light, 6-weeks, about 22° C. to about 26° C.) | Shelf stability, 12 weeks ([2]; Sample 1: −10° C., Dark) | Shelf stability, 17 weeks ([2]; Sample 1: −10° C., Dark) | Shelf stability, 12 weeks ([2]; Sample 2: 4° C., Dark) | Shelf stability, 17 weeks ([2]; Sample 2: 4° C., Dark) | Shelf stability, 12 weeks [2, 4] | Shelf stability, 17 weeks [2, 4] | Shelf stability, 12 weeks [2, 5] | Shelf stability, 17 weeks [2, 5] | Shelf stability (NMR spectra unchanged) ([2]; 17-weeks) | Shelf stability (NMR spectra unchanged) ([2]; weekly for 12-weeks) | Content of dimerized [1-^13C]pyruvate salt by HPLC [3] | Content of sodium [1-^13C]pyruvate by HPLC [3] [%] | Share of the pyruvic acid accounted for by dimerized salt [3] | Stability of solutions in water at higher concentrations (believed) ([1]; at least the concentrations of Table 2 in water, inferred from commercial pyruvic acid) | Compound
1 | stable |  |  |  |  |  |  |  |  |  |  |  |  |  |  | CC(=O)C(=O)O [Pyruvic acid, 2-oxopropanoic acid, reference compound]
2 |  | Stable | Stable | Stable | Stable | Stable | Stable | Stable | Stable | shelf stable | shelf stable | 2-4% | 89 | 4-6% | stable | CC(=O)[13C](=O)O [[1-^13C]pyruvic acid]
